Like-named read-outs stand apart in the source and are kept apart here.
What was measured:
Assay type in all cases: in vivo
peanuts = assay: Greenhouse pre-emergence GR15/GR85 selectivity test; settings: Table XVI
Excerpt: (§1) A good grade of top soil is placed in aluminum pans and compacted to a depth of three-eighths to one-half inch from the top of the pan. On the top of the soil is placed a number of seeds or vegetative propagules of various plant species. The soil required to level fill the pans after seeding or adding vegetative propagules is weighed into a pan. The soil and a known amount of the active ingredient applied in a solvent or as a wettable powder suspension are thoroughly mixed, and used to cover the prepared pans. After treatment, the pans are given an initial overhead irrigation of eater, equivalent to one-fourth inch (0.64 cm) rainfall, then watered by subirrigation as need to give adequate moisture for germination and growth. As an alternative procedure, the overhead irrigation may be omitted. Observations are made about 2-3 weeks after seeding and treatment.
(§2) In the discussion and tables of data below, reference is made to herbicide application rates symbolized as "GR15 " and "GR85 "; these rates are given in kilograms per hectare (kg/ha) which are convertible into pounds per acre (lbs/A) by dividing the kg/ha rate by 1.12.
(§3) A further guide to the effectiveness of a chemical as a selective herbicide is the "selectivity factor" ("SF") for a herbicide in given crops and weeds. The selectivity factor is a measure of the relative degree of crop safety and weed injury and is expressed in terms of the GR15 /GR85 ratio, i.e., the GR15 rate for the crop divided by the GR85 rate for the weed, both rates in kg/ha (lb/A). In the tables below, selectivity factors are shown in parenthesis following the GR85 rate for each weed; the symbol "NS" indicates "non-selective". Marginal or undetermined selectivity is indicated by a dash (--).
(§4) Additionally, pre-emergence herbicidal data from other tests have established that compounds according to this invention also selectively suppress quackgrass, yellow nutsedge and/or other weeds in one or more of the crops cotton, peanuts, bush beans and/or rape. For example, in Table VI are presented data showing the herbicidal selectivity of the compounds of Examples 1 and 2 against quackgrass in rape and snap beans. Unless otherwise noted; greenhouse tests in Table VI and in other tables below involved herbicide treatments by soil incorporation and an initial overhead irrigation followed by subirrigation as described above.
(§5) Additional greenhouse tests were made to test certain compounds of this invention against a plurality of problem weeds in peanuts and lima beans; except for fall panicum, the test weeds are particularly resistant weeds; the test data is set forth in Table XVI.
(§6) In Table XVI, the selectivity factors for the test compounds for each weed in lima beans is shown as the first or upper value in parenthesis and the selectivity factors for each weed in peanuts is shown as the second or lower value in parenthesis for each compound. For example, the selectivity factor for the compound of Example 3 for seedling johnsongrass in lima beans is 2.1 and in peanuts, >4.9; the selectivity factor for Texas panicum in lima beans is 1.1 and in peanuts, >2.6, etc.

lima beans = assay: as above; settings: Table XVI
Excerpt: as §1, §2, §3, §4, §5, §6

common purslane = assay: as above; settings: Table XV
Outline: (§7)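 Pre-emergence soil-incorporation test: seeded pans were covered with topsoil mixed with active ingredient (in solvent or as wettable powder), overhead-irrigated (0.64 cm) or not, then subirrigated. Plants were scored about 2-3 weeks after treatment. GR15/GR85 rates are in kg/ha, and selectivity factor is crop GR15 divided by weed GR85.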

redroot pigweed = assay: as above; settings: Table XV; for selectivity factor (GR15/GR85): in rape
Outline: as §7

prickly sida = assay: as above; settings: Table XV
Outline: as §7

purple nutsedge = assay: as above; settings: Table XV; for selectivity factor (GR15/GR85): in rape
Outline: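 Pre-emergence greenhouse test: compound in solvent or as a wettable powder was mixed into cover soil over the seeds or propagules. Pans got an initial overhead irrigation equal to 0.64 cm of rain (sometimes omitted), then subirrigation, and were assessed about 2-3 weeks later. GR15 (crop) and GR85 (weed) rates were in kg/ha; selectivity factor is their ratio.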

Barnyardgrass = assay: Resistance to leaching and resulting herbicidal efficacy; settings: for inhibition at 140 g/ha / inhibition at 560 g/ha / inhibition at 2200 g/ha: Echinochloa crus-galli, read-out: Percent Inhibition
Outline: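 Treated soil in pots leached under simulated rainfall (one inch (2.5 cm) water per hour, duration varied), held three days at ambient temperature, then laid as surface layer over barnyardgrass-seeded pots. After 2-3 weeks in greenhouse, visual percent growth inhibition versus untreated controls and fresh weights recorded; three replications per compound.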

cotton = assay: Greenhouse pre-emergence GR15/GR85 selectivity test
Excerpt: as §1, §2, §3, §4
In one multi-crop test in the greenhouse, the compounds of Examples 1, 9, and 10 were tested against yellow nutsedge in cotton, soybeans, corn and rice; each compound was non-selective with respect to yellow nutsedge in rice. However, markedly high selectivities for yellow nutsedge in cotton, soybeans and corn were shown for each of the compounds in the test; the respective GR15 and GR85 rates for these compounds are shown in Table XII selectivity factors are shown in parenthesis after each crop.

[1] = Drummer silt clay, 0.14 Kg/Ha, rain 0 cm
[2] = Drummer silt clay, 0.14 Kg/Ha, rain 1.27 cm
[3] = Drummer silt clay, 0.14 Kg/Ha, rain 5.08 cm
[4] = Drummer silt clay, 0.14 Kg/Ha, rain 10.16 cm
[5] = Drummer silt clay, 0.56 Kg/Ha, rain 0 cm
[6] = Drummer silt clay, 0.56 Kg/Ha, rain 1.27 cm
[7] = Drummer silt clay, 0.56 Kg/Ha, rain 5.08 cm
[8] = Drummer silt clay, 0.56 Kg/Ha, rain 10.16 cm
[9] = Drummer silt clay, 2.2 Kg/Ha, rain 0 cm
[10] = Drummer silt clay, 2.2 Kg/Ha, rain 1.27 cm
[11] = Drummer silt clay, 2.2 Kg/Ha, rain 5.08 cm
[12] = Drummer silt clay, 2.2 Kg/Ha, rain 10.16 cm
[13] = Ray silt loam, 0.14 Kg/Ha, rain 0 cm
[14] = Ray silt loam, 0.14 Kg/Ha, rain 1.27 cm
[15] = Ray silt loam, 0.14 Kg/Ha, rain 5.08 cm
[16] = Ray silt loam, 0.56 Kg/Ha, rain 0 cm
[17] = Ray silt loam, 0.56 Kg/Ha, rain 1.27 cm
[18] = Ray silt loam, 0.56 Kg/Ha, rain 5.08 cm
[19] = Ray silt loam, 0.56 Kg/Ha, rain 10.16 cm
[20] = Ray silt loam, 2.2 Kg/Ha, rain 0 cm
[21] = Ray silt loam, 2.2 Kg/Ha, rain 1.27 cm
[22] = Ray silt loam, 2.2 Kg/Ha, rain 5.08 cm
[23] = Ray silt loam, 2.2 Kg/Ha, rain 10.16 cm
[24] = Ray silt loam, 0.14 Kg/Ha, rain 10.16 cm

Cc1cccc(C(F)(F)F)c1N(COCC(C)C)C(=O)CCl [Example 5, N--(isobutoxymethyl)-2'-trifluoromethyl-6'-methyl-2-chloroacetanilide]
GR15 Rate (peanuts): 0.56 Kg/Ha | GR15 Rate (lima beans): > 1.12 Kg/Ha | GR85 Rate (common purslane): > 1.12 Kg/Ha | GR85 Rate (redroot pigweed): 0.50 Kg/Ha | selectivity factor (GR15/GR85) (redroot pigweed): > 2.2 | GR85 Rate (prickly sida): > 1.12 Kg/Ha | GR85 Rate (purple nutsedge): 0.23 Kg/Ha | selectivity factor (GR15/GR85) (purple nutsedge): > 4.9 | inhibition at 140 g/ha (Barnyardgrass; [1]): 12% | inhibition at 140 g/ha (Barnyardgrass; [2]): 26% | inhibition at 140 g/ha (Barnyardgrass; [3]): 20% | inhibition at 140 g/ha (Barnyardgrass; [4]): 12% | inhibition at 560 g/ha (Barnyardgrass; [5]): 50% | inhibition at 560 g/ha (Barnyardgrass; [6]): 100% | inhibition at 560 g/ha (Barnyardgrass; [7]): 93% | inhibition at 560 g/ha (Barnyardgrass; [8]): 84% | inhibition at 2200 g/ha (Barnyardgrass; [9]): 100% | inhibition at 2200 g/ha (Barnyardgrass; [10]): 100% | inhibition at 2200 g/ha (Barnyardgrass; [11]): 100% | inhibition at 2200 g/ha (Barnyardgrass; [12]): 100% | inhibition at 140 g/ha (Barnyardgrass; [13]): 84% | inhibition at 140 g/ha (Barnyardgrass; [14]): 90% | inhibition at 140 g/ha (Barnyardgrass; [15]): 58% | inhibition at 560 g/ha (Barnyardgrass; [16]): 99% | inhibition at 560 g/ha (Barnyardgrass; [17]): 99% | inhibition at 560 g/ha (Barnyardgrass; [18]): 90% | inhibition at 560 g/ha (Barnyardgrass; [19]): 72% | inhibition at 2200 g/ha (Barnyardgrass; [20]): 100% | inhibition at 2200 g/ha (Barnyardgrass; [21]): 100% | inhibition at 2200 g/ha (Barnyardgrass; [22]): 99% | inhibition at 2200 g/ha (Barnyardgrass; [23]): 84% | inhibition at 140 g/ha (Barnyardgrass; [24]): 29% | Fresh Weight (Barnyardgrass; [13]): 0.66 Grams | Fresh Weight (Barnyardgrass; [14]): 0.43 Grams | Fresh Weight (Barnyardgrass; [15]): 1.72 Grams | Fresh Weight (Barnyardgrass; [24]): 2.92 Grams | Fresh Weight (Barnyardgrass; [16]): 0.04 Grams | Fresh Weight (Barnyardgrass; [17]): 0.02 Grams | Fresh Weight (Barnyardgrass; [18]): 0.41 Grams | Fresh Weight (Barnyardgrass; [19]): 1.17 Grams | Fresh Weight (Barnyardgrass; [20]): 0 Grams | Fresh Weight (Barnyardgrass; [21]): 0 Grams | Fresh Weight (Barnyardgrass; [22]): 0.03 Grams | Fresh Weight (Barnyardgrass; [23]): 0.64 Grams

CCCOCN(C(=O)CCl)c1c(CC)cccc1C(F)(F)F [Example 10, N--(n-propoxymethyl)-2'-trifluoromethyl-6'-ethyl-2-chloroacetanilide]
GR15 Rate (peanuts): 0.98 Kg/Ha | GR15 Rate (lima beans): > 1.12 Kg/Ha | GR15 (cotton; Table XII): 2.8 Kg/Ha | GR85 Rate (common purslane): > 1.12 Kg/Ha | GR85 Rate (redroot pigweed): 0.70 Kg/Ha | selectivity factor (GR15/GR85) (redroot pigweed): > 1.6 | GR85 Rate (prickly sida): > 1.12 Kg/Ha | GR85 Rate (purple nutsedge): 0.18 Kg/Ha | selectivity factor (GR15/GR85) (purple nutsedge): > 6.2 | inhibition at 140 g/ha (Barnyardgrass; [1]): 90% | inhibition at 140 g/ha (Barnyardgrass; [2]): 85% | inhibition at 140 g/ha (Barnyardgrass; [3]): 80% | inhibition at 140 g/ha (Barnyardgrass; [4]): 70% | inhibition at 560 g/ha (Barnyardgrass; [5]): 99% | inhibition at 560 g/ha (Barnyardgrass; [6]): 98% | inhibition at 560 g/ha (Barnyardgrass; [7]): 98% | inhibition at 560 g/ha (Barnyardgrass; [8]): 98% | inhibition at 2200 g/ha (Barnyardgrass; [9]): 100% | inhibition at 2200 g/ha (Barnyardgrass; [10]): 100% | inhibition at 2200 g/ha (Barnyardgrass; [11]): 99% | inhibition at 2200 g/ha (Barnyardgrass; [12]): 98% | inhibition at 140 g/ha (Barnyardgrass; [13]): 100% | inhibition at 140 g/ha (Barnyardgrass; [14]): 100% | inhibition at 140 g/ha (Barnyardgrass; [15]): 98% | inhibition at 560 g/ha (Barnyardgrass; [16]): 100% | inhibition at 560 g/ha (Barnyardgrass; [17]): 100% | inhibition at 560 g/ha (Barnyardgrass; [18]): 100% | inhibition at 560 g/ha (Barnyardgrass; [19]): 90% | inhibition at 2200 g/ha (Barnyardgrass; [21]): 100% | inhibition at 2200 g/ha (Barnyardgrass; [22]): 100% | inhibition at 2200 g/ha (Barnyardgrass; [23]): 98% | inhibition at 140 g/ha (Barnyardgrass; [24]): 65%

CCOCN(C(=O)CCl)c1c(CC)cccc1C(F)(F)F [Example 9, N--(ethoxymethyl)-2'-trifluoromethyl-6'-ethyl-2-chloroacetanilide]
GR15 Rate (peanuts): 0.90 Kg/Ha | GR15 Rate (lima beans): 0.75 Kg/Ha | GR15 (cotton; Table XII): 2.5 Kg/Ha | GR15 (cotton; cotton/yellow nutsedge): 0.7 kg/ha | GR85 Rate (common purslane): 0.78 Kg/Ha | selectivity factor (GR15/GR85) (common purslane; in rape): 1.3 | GR85 Rate (redroot pigweed): 0.70 Kg/Ha | selectivity factor (GR15/GR85) (redroot pigweed): 1.4 | GR85 Rate (prickly sida): > 1.12 Kg/Ha | selectivity factor (GR15/GR85) (prickly sida; in rape): NS (non-selective) | GR85 Rate (purple nutsedge): 0.19 Kg/Ha | selectivity factor (GR15/GR85) (purple nutsedge): 5.2
